Measured values published in patent US7786160B2, “Combination of selected analgesics and COX-II inhibitors” (Gruenenthal GmbH, priority 2002, dated 2010).
Like-named read-outs stand apart in the source and are kept apart here.

Columns and labels:
Assay type in all cases: in vivo
[1] = system: rat; assay: Randall-Selitto test (yeast oedema, model for inflammatory pain); settings: for effect of compound A with COX-II inhibitor (Rofecoxib or Celecoxib) compared with additive (in words): staggered administration, Rofecoxib or Celecoxib 1 hour prior to compound A
Procedure: The Randell-Selitto test of Randall and Selitto (Arch. Int. Pharmacodyn., 1957, 111: 409 to 419) is a model for inflammatory pain.
By means of the injection of 0.1 ml 20% baking yeast suspension ventrally into a hind paw an oedema was induced, on which pain was generated 4 hours later by continuously increasing pressure with a stamp (2 mm tip diameter). The measured value to be determined and at the same time also the end point of the pain test was the pressure at which the vocalisation reaction of the animal occurred. The percentage maximum possible effect (%MPE) was calculated. The maximum pressure of the stamp was 250 g. The group size was n=10.
The theoretical additive value was calculated by adding the mean values from the individual tests of the test substance and COX-II inhibitor. The corresponding standard deviation of the theoretical additive mean value was calculated from the addition of the variances.

[2] = system: rat; assay: Formalin test (chronic pain component), rat; settings: peroral, substance alone
Procedure: (§1) The formalin test (Dubuisson, D. and Dennis, S. G., 1977, Pain, 4, 161 to 174) is a model for acute and chronic pain. In the tests presented here, the chronic pain component was evaluated.
(§2) By means of a single formalin injection into the dorsal side of a hind paw of test animals that were able to move freely, a biphasic nociceptive reaction, which was detected by the observation of three clearly distinguishable behavioural patterns, was induced.
(§3) Formalin having a volume of 20 μl and a concentration of 1% was administered subcutaneously into the dorsal side of the right hind paw of each animal. The specific behavioural changes, such as raising and shaking of the paw, weight loss in the animal and biting and licking reactions, were continuously observed and registered for up to 60 min after the formalin administration. The behavioural changes were weighted differently (a score of 0 to 3) and a pain rate (PR) calculated having the general formula: PR=[(T0×0)+(T1×1)+(T2×2)+(T3×3)/180.
(§4) The group contained 10 animals (n=10).

[3] = system: mouse; assay: Formalin test (chronic pain component), mouse; settings: peroral, substance alone
Procedure: as §1, §2, §3, §4

[4] = All listed animal models together (acute, chronic and inflammatory pain); settings: simultaneous administration with a selective COX-II inhibitor (Rofecoxib or Celecoxib), chronic and inflammatory pain (Table 1)
Procedure: 1, 4, 2 and 2 (Randall-Selitto test). In these tests, either Rofecoxib or Celecoxib was administered 1 hour prior to the administration of the selected analgesic (compound A). In a few tests, Rofecoxib was administered as the final preparation Vioxx and Celecoxib as Celebrex.

[5] = system: rat; assay: Writhing test (acetic acid, model for acute pain); settings: peroral, substance alone
Procedure: The writhing test is a modification of the method of Schmauss C and Yaksh TL, J Pharmacol Exp Ther 228: 1-12 (1984) and a model for acute pain.
9% acetic acid was administered to the animals intraperitoneally as a pain stimulus. This was administered 30 min (test substance perorally) or 10 min (test substance intravenously) after the administration of the test substance. The pain-induced writhing reactions were recorded 10 to 35 min after the administration of acetic acid. […] Pain expressions, such as a slanting body angle when the animal stands upright, frequent cleaning of the belly or arching of the back without stretching of the rear limbs, were thus included in the evaluation.
The animals that had been treated with the substance were compared with a control group, which had been given physiological saline solution. The group contained 10 animals (n=10).

[6] = read-out: ED50 [mg/kg] of COX-II inhibitor
[7] = read-out: ED50 [mg/kg] of compound A

CC[C@H](c1cccc(O)c1)[C@H](C)CN(C)C.Cl [Compound 3, (1S,2S)-3-(3-dimethylamino-1-ethyl-2-methyl-propyl)-phenol; hydrochloride]
% effect of compound A ([1]; Table 4, staggered series, compound A alone 21.5 mg/kg peroral): 22.8%

COc1cccc([C@@]2(O)C[C@H](O)CC[C@@H]2CN(C)C)c1.Cl (racemic) [Compound 4]
% effect of compound A ([1]; Table 2, staggered series, compound A alone 68.1 mg/kg peroral, 15-75 min after administration of compound No. 4): 85.4%
% effect of compound A ([1]; Table 2, staggered series, compound A alone 68.1 mg/kg peroral, 75-90 min after administration of compound No. 4): 45.2%
effect of compound A with COX-II inhibitor (Rofecoxib or Celecoxib) compared with additive (in words) [1]: clear effect-increasing supra-additive effect

Cc1ccc(-c2cc(C(F)(F)F)nn2-c2ccc(S(N)(=O)=O)cc2)cc1 [Compound 101, Celecoxib, reference compound]
% effect of COX-II inhibitor ([1]; fixed dose combination (not staggered), COX-II inhibitor alone 215 mg/kg peroral, %MPE): 9.8%
ED50 [2, 6]: 154 mg/kg
ED50 [3, 6]: 38.5 mg/kg

CN(C)C[C@@H]1CCCC[C@H]1c1cccc(O)c1.Cl [Compound 1, (1R,2R)-3-(2-dimethylaminomethyl-cyclohexyl)-phenol; hydrochloride]
% effect of compound A ([1]; Table 3, staggered series, compound A alone 46.4 mg/kg peroral): 26.2%
effect of compound A with COX-II inhibitor (Rofecoxib or Celecoxib) compared with additive (in words) [1]: clear effect-increasing supra-additive effect
effect in comparison to the theoretically calculated purely additive effect [4]: intensification of effect

CC[C@@H](c1cccc(O)c1)[C@@H](C)CN(C)C.Cl [Compound 2, (1R,2R)-3-(3-dimethylamino-1-ethyl-2-methyl-propyl)-phenol; hydrochloride]
% effect of compound A ([1]; Table 1, staggered administration series, compound A alone 31 mg/kg peroral): 20.0%
% effect of compound A ([1]; Table 1, staggered administration series, compound A alone 46 mg/kg peroral): 32.6%
% effect of compound A ([1]; fixed dose combination (not staggered), compound A alone 31 mg/kg peroral, %MPE): 13.3%
effect of compound A with COX-II inhibitor (Rofecoxib or Celecoxib) compared with additive (in words) [1]: clear effect-increasing supra-additive effect
ED50 [2, 7]: 18 mg/kg
ED50 [5, 7]: 33 mg/kg
ED50 [3, 7]: 34.6 mg/kg

CS(=O)(=O)c1ccc(C2=C(c3ccccc3)C(=O)OC2)cc1 [Compound 102, Rofecoxib, reference compound]
ED50 [5, 6]: 60.1 mg/kg
